Test results published in patent publication US8022099B2, “N-benzyl pyrrolidine derivatives” (Hoffmann-La Roche Inc., priority 2008, dated 2011).

Target: T1, human NK3 receptor (Homo sapiens, UniProt P29371)
T1 construct: expressed in transfected cells; host or cells: HEK293 cells (transient expression), membrane preparation
T1 sequence (P29371 1-465): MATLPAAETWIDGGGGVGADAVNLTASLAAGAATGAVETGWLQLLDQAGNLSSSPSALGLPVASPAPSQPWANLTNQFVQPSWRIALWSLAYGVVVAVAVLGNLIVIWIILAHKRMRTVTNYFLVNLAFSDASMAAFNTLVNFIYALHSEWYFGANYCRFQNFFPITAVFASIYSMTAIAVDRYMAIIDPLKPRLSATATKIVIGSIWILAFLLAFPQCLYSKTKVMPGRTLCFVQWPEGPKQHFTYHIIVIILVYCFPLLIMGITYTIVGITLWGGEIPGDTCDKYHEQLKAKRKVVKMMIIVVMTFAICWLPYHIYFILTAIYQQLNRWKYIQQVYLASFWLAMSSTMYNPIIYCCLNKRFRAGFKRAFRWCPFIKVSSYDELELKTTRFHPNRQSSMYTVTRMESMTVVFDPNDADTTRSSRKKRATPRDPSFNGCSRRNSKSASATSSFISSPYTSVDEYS
Assay: [3H]SR142801 competition binding assay
Conditions: hNK3 receptor binding, [3H]SR142801, membranes from HEK293 cells transiently expressing recombinant human NK3 receptor
Procedure: [^3H]SR142801 Competition Binding Assay
hNK3 receptor binding experiment were performed using [^3H]SR142801 (Catalog No. TRK1035, specific activity: 74.0 Ci/mmol, Amersham, GE Healthcare UK limited, Buckinghamshire, UK) and membrane isolated from HEK293 cells transiently expressing recombinant human NK3 receptor. After thawing, the membrane homogenates were centrifuged at 48,000×g for 10 min at 4° C., the pellets were resuspended in the 50 mM Tris-HCl, 4 mM MnCl2, 1 μM phosphoramidon, 0.1% BSA binding buffer at pH 7.4 to a final assay concentration of 5 μg protein/well. For inhibition experiments, membranes were incubated with [^3H]SR142801 at a concentration equal to KD value of radioligand and 10 concentrations of the inhibitory compound (0.0003-10 μM) (in a total reaction volume of 500 μl) for 75 min at room temperature (RT). At the end of the incubation, membranes were filtered onto unitfilter (96-well white microplate with bonded GF/C filter preincubated 1 h in 0.3% PEI+0.3% BSA, Packard BioScience, Meriden, Conn.) with a Filtermate 196 harvester (Packard BioScience) and washed 4 times with ice-cold 50 mM Tris-HCl, pH 7.4 buffer. Nonspecific binding was measured in the presence of 10 μM SB222200 for both radioligands. The radioactivity on the filter was counted (5 min) on a Packard Top-count microplate scintillation counter with quenching correction after addition of 45 μl of microscint 40 (Canberra Packard S. A., Zürich, Switzerland) and shaking for 1 h. Inhibition curves were fitted according to the Hill equation: y=100/(1+(x/IC50)^nH), where nH=slope factor using Excel-fit 4 software (Microsoft). IC50 values were derived from the inhibition curve and the affinity constant (Ki) values were calculated using the Cheng-Prussoff equation Ki=IC50/(1+[L]/KD) where [L] is the concentration of radioligand and KD is its dissociation constant at the receptor, derived from the saturation isotherm. All experiments were performed in duplicate and the mean±standard error (SEM) of the individual Ki values was calculated.

Compound | Ki [nM]
CN(C)[C@@H]1CCN(C(=O)N2C[C@H](c3ccc(Cl)c(Cl)c3)[C@@H](N(C)Cc3ccc(C(F)(F)F)c(F)c3)C2)C1 (mixture of isomers) [Example 57, {(3SR,4RS)-3-(3,4-Dichloro-phenyl)-4-[(3-fluoro-4-trifluoromethyl-benzyl)-methyl-amino]-pyrrolidin-1-yl}-((R)-3-dimethylamino-pyrrolidin-1-yl)-methanone] | 74.8
C[C@H]1CN(C(=O)N2C[C@H](c3ccc(Cl)c(Cl)c3)[C@@H](N(C)Cc3ccc(C(F)(F)F)c(F)c3)C2)CCN1S(C)(=O)=O (mixture of isomers) [Example 59, {(3SR,4RS)-3-(3,4-Dichloro-phenyl)-4-[(3-fluoro-4-trifluoromethyl-benzyl)-methyl-amino]-pyrrolidin-1-yl}-((S)-4-methanesulfonyl-3-methyl-piperazin-1-yl)-methanone] | 15.4
C[C@@H]1CN(C(=O)N2C[C@H](c3ccc(Cl)c(Cl)c3)[C@@H](N(C)Cc3ccc(C(F)(F)F)c(F)c3)C2)CCN1S(C)(=O)=O (mixture of isomers) [Example 60, {(3SR,4RS)-3-(3,4-Dichloro-phenyl)-4-[(3-fluoro-4-trifluoromethyl-benzyl)-methyl-amino]-pyrrolidin-1-yl}-((R)-4-methanesulfonyl-3-methyl-piperazin-1-yl)-methanone] | 3.6
CC(=O)N[C@H]1CCN(CC(=O)N2C[C@H](c3ccc(Cl)c(Cl)c3)[C@@H](N(C)Cc3ccc(C(F)(F)F)c(F)c3)C2)C1 (mixture of isomers) [Example 133, N-[(S)-1-(2-{(3SR,4RS)-3-(3,4-Dichloro-phenyl)-4-[(3-fluoro-4-trifluoromethyl-benzyl)-methyl-amino]-pyrrolidin-1-yl}-2-oxo-ethyl)-pyrrolidin-3-yl]-acetamide] | 23.2
CC(=O)N[C@@H]1CCN(CC(=O)N2C[C@H](c3ccc(Cl)c(Cl)c3)[C@@H](N(C)Cc3ccc(C(F)(F)F)c(F)c3)C2)C1 (mixture of isomers) [Example 134, N-[(R)-1-(2-{(3SR,4RS)-3-(3,4-Dichloro-phenyl)-4-[(3-fluoro-4-trifluoromethyl-benzyl)-methyl-amino]-pyrrolidin-1-yl}-2-oxo-ethyl)-pyrrolidin-3-yl]-acetamide] | 43.2
C[C@H]1CN(CC(=O)N2C[C@H](c3ccc(Cl)c(Cl)c3)[C@@H](N(C)Cc3ccc(C(F)(F)F)c(F)c3)C2)CCN1 (mixture of isomers) [Example 140, 1-{(3SR,4RS)-3-(3,4-Dichloro-phenyl)-4-[(3-fluoro-4-trifluoromethyl-benzyl)-methyl-amino]-pyrrolidin-1-yl}-2-((S)-3-methyl-piperazin-1-yl)-ethanone] | 47.9
C[C@@H]1CN(CC(=O)N2C[C@H](c3ccc(Cl)c(Cl)c3)[C@@H](N(C)Cc3ccc(C(F)(F)F)c(F)c3)C2)CCN1 (mixture of isomers) [Example 141, 1-{(3SR,4RS)-3-(3,4-Dichloro-phenyl)-4-[(3-fluoro-4-trifluoromethyl-benzyl)-methyl-amino]-pyrrolidin-1-yl}-2-((R)-3-methyl-piperazin-1-yl)-ethanone] | 59.7
CN(Cc1ccc(C(F)(F)F)c(F)c1)[C@H]1CN(C(=O)CN2C[C@@H]3C[C@@H]2CO3)C[C@@H]1c1ccc(Cl)c(Cl)c1 (mixture of isomers) [Example 148, 1-{(3SR,4RS)-3-(3,4-Dichloro-phenyl)-4-[(3-fluoro-4-trifluoromethyl-benzyl)-methyl-amino]-pyrrolidin-1-yl}-2-(1S,4R)-2-oxa-5-aza-bicyclo[2.2.1]hept-5-yl-ethanone] | 25.1
CN(Cc1ccc(C(F)(F)F)c(F)c1)[C@H]1CN(C(=O)N2CCN(S(C)(=O)=O)CC2)C[C@@H]1c1ccccc1 (racemic) [Example 17, {(3RS,4SR)-3-[(3-Fluoro-4-trifluoromethyl-benzyl)-methyl-amino]-4-phenyl-pyrrolidin-1-yl}-(4-methanesulfonyl-piperazin-1-yl)-methanone] | 90.9
CN(Cc1ccc(Cl)c(Cl)c1)[C@H]1CN(C(=O)N2CCN(S(C)(=O)=O)CC2)C[C@@H]1c1ccc(Cl)cc1 (racemic) [Example 19, {(3SR,4RS)-3-(4-Chloro-phenyl)-4-[(3,4-dichloro-benzyl)-methyl-amino]-pyrrolidin-1-yl}-(4-methanesulfonyl-piperazin-1-yl)-methanone] | 80.7
CN(Cc1ccc(Cl)cc1)[C@H]1CN(C(=O)N2CCN(S(C)(=O)=O)CC2)C[C@@H]1c1ccc(Cl)cc1 (racemic) [Example 23, [(3RS,4SR)-3-[(4-Chloro-benzyl)-methyl-amino]-4-(4-chloro-phenyl)-pyrrolidin-1-yl]-(4-methanesulfonyl-piperazin-1-yl)-methanone] | 91
CN(Cc1ccc(C#N)cc1)[C@H]1CN(C(=O)N2CCN(S(C)(=O)=O)CC2)C[C@@H]1c1ccc(Cl)cc1 (racemic) [Example 26, 4-({[(3RS,4SR)-4-(4-Chloro-phenyl)-1-(4-methanesulfonyl-piperazine-1-carbonyl)-pyrrolidin-3-yl]-methyl-amino}-methyl)-benzonitrile] | 82.5
CN(Cc1ccc(-c2ccccc2)cc1)[C@H]1CN(C(=O)N2CCN(S(C)(=O)=O)CC2)C[C@@H]1c1ccc(Cl)cc1 (racemic) [Example 27, [(3RS,4SR)-3-(Biphenyl-4-ylmethyl-methyl-amino)-4-(4-chloro-phenyl)-pyrrolidin-1-yl]-(4-methanesulfonyl-piperazin-1-yl)-methanone] | 78
CN(Cc1ccc(Cl)c(F)c1)[C@H]1CN(C(=O)N2CCN(S(C)(=O)=O)CC2)C[C@@H]1c1ccc(Cl)cc1 (racemic) [Example 29, [(3RS,4SR)-3-[(4-Chloro-3-fluoro-benzyl)-methyl-amino]-4-(4-chloro-phenyl)-pyrrolidin-1-yl]-(4-methanesulfonyl-piperazin-1-yl)-methanone] | 69.9
CN(Cc1ccc(C(F)(F)F)c(F)c1)[C@H]1CN(C(=O)N2CCN(S(C)(=O)=O)CC2)C[C@@H]1c1ccc(Cl)cc1 (racemic) [Example 30, {(3SR,4RS)-3-(4-Chloro-phenyl)-4-[(3-fluoro-4-trifluoromethyl-benzyl)-methyl-amino]-pyrrolidin-1-yl}-(4-methanesulfonyl-piperazin-1-yl)-methanone] | 28.4
CN(Cc1ccc(C(F)(F)F)c(F)c1)[C@H]1CN(C(=O)N2CCN(S(C)(=O)=O)CC2)C[C@@H]1c1ccc(Cl)c(Cl)c1 (racemic) [Example 31, {(3SR,4RS)-3-(3,4-Dichloro-phenyl)-4-[(3-fluoro-4-trifluoromethyl-benzyl)-methyl-amino]-pyrrolidin-1-yl}-(4-methanesulfonyl-piperazin-1-yl)-methanone] | 8.3
CN(Cc1ccc(Cl)c(Cl)c1)[C@H]1CN(C(=O)N2CCN(S(C)(=O)=O)CC2)C[C@@H]1c1ccc(Cl)c(Cl)c1 (racemic) [Example 32] | 33.3
CN(Cc1ccc(Cl)cc1)[C@H]1CN(C(=O)N2CCN(S(C)(=O)=O)CC2)C[C@@H]1c1ccc(Cl)c(Cl)c1 (racemic) [Example 33, [(3RS,4SR)-3-[(4-Chloro-benzyl)-methyl-amino]-4-(3,4-dichloro-phenyl)-pyrrolidin-1-yl]-(4-methanesulfonyl-piperazin-1-yl)-methanone] | 33.6
CN(Cc1ccc(C#N)cc1)[C@H]1CN(C(=O)N2CCN(S(C)(=O)=O)CC2)C[C@@H]1c1ccc(Cl)c(Cl)c1 (racemic) [Example 34, 4-({[(3RS,4SR)-4-(3,4-Dichloro-phenyl)-1-(4-methanesulfonyl-piperazine-1-carbonyl)-pyrrolidin-3-yl]-methyl-amino}-methyl)-benzonitrile] | 32.2
CN(Cc1ccc(F)c(F)c1)[C@H]1CN(C(=O)N2CCN(S(C)(=O)=O)CC2)C[C@@H]1c1ccc(Cl)c(Cl)c1 (racemic) [Example 36, {(3SR,4RS)-3-(3,4-Dichloro-phenyl)-4-[(3,4-difluoro-benzyl)-methyl-amino]-pyrrolidin-1-yl}-(4-methanesulfonyl-piperazin-1-yl)-methanone] | 52.6
